Source: patent US20100120690A1, “Polypeptides Having Antimicrobial Activity and Polynucleotides Encoding Same” (Novozymes Adenium Biotech A/S, priority 2005, published 2010)

How the values were obtained:
[1] = test system: S. epidermis; experiment: Minimal Effective Concentration (MEC) assay; assay type: cell-based, Staphylococcus epidermidis
Protocol: (§1) Three antimicrobial polypeptides, which are variants of SEQ ID NO: 1, were tested for antimicrobial activity. A Minimal Effective Concentration assay (MEC, expressed as micrograms/mL) against different microorganisms was performed using the three plectasin mutants, Y40YR, N17R and Y25R following the protocol described in the book of Methods in Molecular Biology, Vol. 78, Antibacterial peptide protocol William M. Shafer, Human Press.

[2] = test system: Staphylococcus carnosus; experiment: TAPS (Trans Acting Peptide System) assay, radial diffusion read-out; assay type: cell-based; set-up: key: classified as 4>3>2>1; whereas 4 is better than 1; classified as 4>3>2>1; classified as 4>3>2>1; wildtype activity corresponds to 1; settings: peptide expressed in E. coli
Protocol: A range of antimicrobial polypeptides, which are variants of SEQ ID NO: 1, were tested in the TAPS assay. TAPS may be used to identify new or improved genes encoding peptides that can kill or inhibit the growth of target cells (see PCT application WO 2004/033715). The TAPS assay, an acronym for Trans Acting Peptide System, is based on having a sensitive host producing a peptide followed by screening for its activity in trans against an indicator strain. The advantage of this system is based on that the antimicrobial peptide is expressed in the Gram-negative bacterium E. coli and its antimicrobial activity can be monitored on different microbes including Gram-negatives, positives or fungi. Additionally, TAPS offers the possibility to produce correctly folded AMPs containing disulfide bonds in the host cells, thereby retaining their antimicrobial activities.
The TAPS approach requires first, that expression of the peptide is under control of an inducible promoter with tight regulation, because the host cells are sensitive to the peptide when producing it. Secondly, the produced peptide has to be released to the media so that it can interact with the target organism.
The TAPS screening can be carried out either in solid or liquid media. On solid media, a plasmid library is initially introduced into E. coli host cells. […] In the next step, the filter containing the colonies is transferred to LB growth medium containing inducer (0.1% arabinose) to permit peptide synthesis. Subsequently, the target strain, for example S. carnosus, is overlaid onto the plate and allowed to grow for 12-16 hours at 37° C. Finally, visual inspection of the host cells capable of reducing the proliferation of the target cells is performed and the nucleotide sequence encoding for the antimicrobial peptide is recovered from the host cells. DNA sequence analysis of the variants is obtained to elucidate the nature of the peptide.
As mentioned above, the TAPS screening can also be performed using liquid medium. This procedure requires the use of robotics to analyze large number of clones. In this system, the host E. coli origami cells are transformed with the plasmid library and plated out on LB medium+0.2% glucose+ampicillin (200 mg/L). Independent colonies are then inoculated into 96 or 384-well plates containing 200 micro-L of TB medium+ampicillin (200 mg/L) and cultured overnight at 37° C. These cultures are then replicated robotically and grown to exponential phase until inducer (0.1% arabinose) is added to trigger peptide synthesis. The next step consists in hydrolyzing the cells such that the peptide is released to the media by hot acid hydrolysis. This treatment consists on adding 1 M sodium Phosphate buffer pH 2.3 to obtain a final pH approximately of 2.3 and incubating the cultures overnight at 80° C. Next day, a 25 micro-L aliquot of the hydrolyzed cultures is used to perform an activity test against the desired target organisms. The activity test performed was a Radial Diffusion Assay (RDA) where an aliquot of the hydrolyzed cultures was added to the agarose media inoculated with the target strain, S. carnosus. […] Measurements of the diameter of the clearing zones were performed to quantify the potency of the antimicrobial activity of the peptides.
The antimicrobial activity (against Staphylococcus carnosus) of the tested plectasin variants, which was measured using the TAPS assay, is shown in table 3. The antimicrobial activity corresponds to the clearing zone size and has been classified as 4>3>2>1; whereas 4 is better than 1, and wildtype activity corresponds to 1.

[3] = test system: B. subtilis; experiment: Minimal Effective Concentration (MEC) assay; assay type: cell-based, Bacillus subtilis
Protocol: as §1

[4] = test system: M. luteus; experiment: Minimal Effective Concentration (MEC) assay; assay type: cell-based, Micrococcus luteus
Protocol: as §1

[5] = test system: Staphylococcus aureus, MRSA ST5 (2001); experiment: MIC, NCCLS/CLSI guidelines (Example 5), strain D; assay type: cell-based; settings: relative to wildtype Plectasin; average of two independent experiments
Procedure, shortened: (§2)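 Purified Plectasin variants were tested for MIC per NCCLS/CLSI guidelines; strains D and E are multi-resistant clinical human MRSA isolates. MICs average two independent experiments and are scored relative to wild-type Plectasin MIC: 0 >100%, 1 80-100%, 2 50-80%, 3 <50%.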

[6] = test system: panel of 6 different strains of Staphylococcus aureus; experiment: Average MIC, NCCLS/CLSI guidelines using caMHB (Example 6); assay type: cell-based; settings: average over 6 S. aureus strains, duplicate; MIC above 32 counted as 64; read after 18-24 hours at 37° C.
Procedure, shortened: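 MICs were determined by broth dilution per NCCLS/CLSI in caMHB against six S. aureus strains (four MSSA, two MRSA), with peptides at 0.03–32 microgram/mL, read after 18-24 h at 37° C. Each was tested in duplicate and the two results averaged; MICs above 32 micrograms/mL were counted as 64.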

[7] = test system: Staphylococcus aureus, ATCC 29737; experiment: MIC, NCCLS/CLSI guidelines (Example 5), strain C; assay type: cell-based; settings: relative to wildtype Plectasin; average of two independent experiments
Procedure, shortened: (§3)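 Scores express each variant's MIC as a fraction of wild-type plectasin MIC (0: >100%; 1: 80-100%; 2: 50-80%; 3: <50%), averaged over two independent runs. Purified recombinant peptides; MIC by the CLSI (formerly NCCLS) method.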

[8] = test system: Staphylococcus aureus, ATCC 25923; experiment: MIC, NCCLS/CLSI guidelines (Example 5), strain B; assay type: cell-based; settings: relative to wildtype Plectasin; average of two independent experiments
Procedure, shortened: as §3

[9] = test system: Staphylococcus aureus, MRSA ST80 (2003); experiment: MIC, NCCLS/CLSI guidelines (Example 5), strain E; assay type: cell-based; settings: relative to wildtype Plectasin; average of two independent experiments
Procedure, shortened: as §2

Sequence: GFGCNGPWDEDDMQCHRHCKSIKGYKGGYCAKGGFVCKCY [Mutation N17R]
- MEC against S. epidermis [1]: 0.59 micrograms/mL
- Activity (antimicrobial activity, clearing zone size) [2]: 2
- MEC against B. subtilis [3]: 0.07 micrograms/mL
- MEC against M. luteus [4]: 0.32 micrograms/mL
- Relative MIC, strain D [5]: 3 (<50% of Plectasin wildtype MIC)
- Average MIC [6]: 4 micrograms/mL
- Relative MIC, strain C [7]: 3 (<50% of Plectasin wildtype MIC)
- Relative MIC, strain B [8]: 3 (<50% of Plectasin wildtype MIC)
- Relative MIC, strain E [9]: 2 (50-80% of Plectasin wildtype MIC)
